Results as given in patent US9493472B2, “Substituted benzoxazoles” (BAYER PHARMA AKTIENGESELLSCHAFT, priority 2013, dated 2016).

Legend:
[1] = target: T1, thrombin (Homo sapiens (Human), UniProt P00734); experiment: Thrombin-inhibitory activity in plasma samples (ecarin-activated); assay type: biochemical; conditions: citrate plasma, prothrombinase activated by ecarin, fluorogenic thrombin substrate; in some cases means; read-out: IC50 [nM] thrombin inhibition in plasma samples
Description: To determine the inhibition of thrombin in plasma samples, plasma […] is activated by ecarin. Thrombin activity and/or its inhibition by potential inhibitors is/are then measured fluorenscently by addition of a substrate.
The substances to be tested are dissolved in various concentrations in dimethyl sulphoxide and diluted with water. In white 96-well flat-bottomed plates, 20 μl of substance dilution are mixed with 20 μl of ecarin solution (ecarin reagent, from Sigma E-0504, final concentration 20 mU per reaction) in Ca buffer (200 mM Hepes+560 mM sodium chloride+10 mM calcium chloride+0.4% PEG) or with 20 μl of Ca buffer (as unstimulated control). Furthermore, 20 μl of fluorogenic thrombin substrate (from Bachem I-1120, final concentration 50 μmol/l) and 20 μl of citrate plasma (from Octapharma) are added, and the mixture is homogenized well. The plate is measured in a SpectraFluorplus Reader using a 360 nm excitation filter and a 465 nm emission filter every minute over 20 minutes.

[2] = target: T1, thrombin; experiment: Measurement of the thrombin inhibition in buffer; assay type: biochemical; conditions: human thrombin 0.06 nmol/l, Tris buffer pH 7.4, 22° C.; substrate Boc-Asp(OBzl)-Pro-Arg-AMC; in some cases means
Description: To determine the thrombin inhibition of the substances listed above, a biochemical test system is constructed in which the conversion of a thrombin substrate is used for determining the enzymatic activity of human thrombin. Here, thrombin cleaves aminomethylcoumarin, which is measured fluorescently, from the peptic substrate. The determinations are carried out in microtitre plates.
Substances to be tested are dissolved in various concentrations in dimethyl sulphoxide and incubated for 15 min with human thrombin (0.06 nmol/l dissolved in 50 mmol/l of Tris buffer [C,C,C-tris(hydroxymethyl)aminomethane], 100 mmol/l of sodium chloride, 0.1% BSA [bovine serum albumin], pH 7.4) at 22° C. The substrate (5 μmol/l Boc-Asp(OBzl)-Pro-Arg-AMC from Bachem) is then added. After 30 min of incubation, the sample is excited at a wavelength of 360 nm and the emission is measured at 460 nm. The measured emissions of the test batches with test substance are compared to the control batches without test substance (only dimethyl sulphoxide instead of test substance in dimethyl sulphoxide) and the IC50 values are calculated from the concentration/activity relationships.

[3] = test system: plasma (prothrombin time); experiment: Anticoagulatory activity: prothrombin time (PT) in plasma; conditions: 37° C., 3 minutes incubation, plasma species not given, in some cases means, read-out: IC50 [μM] (concentration of test substance which effects a doubling of the prothrombin time)
Description: The anticoagulatory activity of the test substances is determined in vitro in human plasma, rabbit plasma and rat plasma. To this end, blood is drawn off in a mixing ratio of sodium citrate/blood of 1:9 using a 0.11 molar sodium citrate solution as receiver. Immediately after the blood has been drawn off, it is mixed thoroughly and centrifuged at about 4000 g for 15 minutes. The supernatant is pipetted off.
The prothrombin time (PT, synonyms: thromboplastin time, quick test) is determined in the presence of varying concentrations of test substance or the corresponding solvent using a commercial test kit (Neoplastin® from Boehringer Mannheim or Hemoliance® RecombiPlastin from Instrumentation Laboratory). The test compounds are incubated with the plasma at 37° C. for 3 minutes. Coagulation is then started by addition of thromboplastin, and the time when coagulation occurs is determined. The concentration of test substance which effects a doubling of the prothrombin time is determined Representative activity data from this test are given in Table 3 below (in some cases as means of individual determinations): […]

Compound	IC50 [1] [nM]	IC50 [2] [nM]	IC50 [3] [µM]
COc1cc(C(=O)N2CCC(O)C(C)C2)cc2nc(NC(CF)c3cccc(Cl)c3)oc12 (single isomer, unassigned) [Example 2, (2-{[1-(3-Chlorophenyl)-2-fluoroethyl]amino}-7-methoxy-1,3-benzoxazol-5-yl)(4-hydroxy-3-methylpiperidin-1-yl)methanone]	31	31	–
COc1cc(C(=O)N2CCC(O)C(C)C2)cc2nc(NC(CF)c3cccc(Cl)c3)oc12 (single isomer, unassigned) [Example 3, (2-{[1-(3-Chlorophenyl)-2-fluoroethyl]amino}-7-methoxy-1,3-benzoxazol-5-yl)(4-hydroxy-3-methylpiperidin-1-yl)methanone]	11.6	2.4	1.8
COc1cc(C(=O)N2CC(C)(C)OCC2CO)cc2nc(NC(CF)c3cccc(Cl)c3)oc12 (single isomer, unassigned) [Example 5, (2-{[1-(3-Chlorophenyl)-2-fluoroethyl]amino}-7-methoxy-1,3-benzoxazol-5-yl)[5-(hydroxymethyl)-2,2-dimethylmorpholin-4-yl]methanone]	4.8	1.1	–
COc1cc(C(=O)N2CC(C)(C)OCC2CO)cc2nc(NC(CF)c3cccc(Cl)c3)oc12 (single isomer, unassigned) [Example 6, (2-{[1-(3-Chlorophenyl)-2-fluoroethyl]amino}-7-methoxy-1,3-benzoxazol-5-yl)[5-(hydroxymethyl)-2,2-dimethylmorpholin-4-yl]methanone]	16.5	9.7	–
COc1cc(C(=O)N2CC(C)OC[C@H]2C)cc2nc(NC(CF)c3cccc(Cl)c3)oc12 (single isomer, unassigned) [Example 7]	11.4	5.3	1.9
COc1cc(C(=O)N2CC(C)OC[C@H]2C)cc2nc(NC(CF)c3cccc(Cl)c3)oc12 (single isomer, unassigned) [Example 8]	25.3	11	–
COc1cc(C(=O)N2CC(C)(CCO)OC[C@H]2C)cc2nc(NC(CF)c3cccc(Cl)c3)oc12 (single isomer, unassigned) [Example 10]	1400	130	–
COc1cc(C(=O)N2CC(C)(CCO)OC[C@H]2C)cc2nc(NC(CF)c3cccc(Cl)c3)oc12 (single isomer, unassigned) [Example 11]	5.7	0.01	1
COc1cc(C(=O)N2CC3CCN3C(=O)C2C)cc2nc(NC(CF)c3cccc(Cl)c3)oc12 (single isomer, unassigned) [Example 23, 4-[(2-{[1-(3-Chlorophenyl)-2-fluoroethyl]amino}-7-methoxy-1,3-benzoxazol-5-yl)carbonyl]-3-methyl-1,4-diazabicyclo[4.2.0]octan-2-one]	4.7	1.7	–
COc1cc(C(=O)N2CCC(O)C(C)C2)cc2nc(NC(CF)c3cccc(Cl)c3)oc12 (stereo not drawn) [Example 1, (2-{[1-(3-Chlorophenyl)-2-fluoroethyl]amino}-7-methoxy-1,3-benzoxazol-5-yl)(4-hydroxy-3-methylpiperidin-1-yl)methanone]	21	3.2	–
COc1cc(C(=O)N2CC(C)(C)OCC2CO)cc2nc(NC(CF)c3cccc(Cl)c3)oc12 (stereo not drawn) [Example 4, (2-{[1-(3-Chlorophenyl)-2-fluoroethyl]amino}-7-methoxy-1,3-benzoxazol-5-yl)[5-(hydroxymethyl)-2,2-dimethylmorpholin-4-yl]methanone]	9.8	1.7	–
COc1cc(C(=O)N2CC(C)(CCO)OC[C@H]2C)cc2nc(NC(CF)c3cccc(Cl)c3)oc12 (stereo partly drawn) [Example 9, (2-{[1-(3-Chlorophenyl)-2-fluoroethyl]amino}-7-methoxy-1,3-benzoxazol-5-yl)[(5R)-2-(2-hydroxyethyl)-2,5-dimethylmorpholin-4-yl]methanone]	14.3	0.2	–
COc1cc(C(=O)N2CC(C)OCC2CCO)cc2nc(NC(CF)c3cccc(Cl)c3)oc12 (stereo not drawn) [Example 13, (2-{[1-(3-Chlorophenyl)-2-fluoroethyl]amino}-7-methoxy-1,3-benzoxazol-5-yl)[5-(2-hydroxyethyl)-2-methylmorpholin-4-yl]methanone]	–	–	1.4
COc1cc(C(=O)N2CC(C)OC[C@]23C[C@H](O)C3)cc2nc(NC(CF)c3cccc(Cl)c3)oc12 (stereo partly drawn) [Example 22, (2-{[1-(3-Chlorophenyl)-2-fluoroethyl]amino}-7-methoxy-1,3-benzoxazol-5-yl)(cis-2-hydroxy-7-methyl-8-oxa-5-azaspiro[3.5]non-5-yl)methanone]	3.8	1.6	–

Further lines, results first:

IC50 [1] [nM]	IC50 [2] [nM]	IC50 [3] [µM]	Compound
4.5	–	–	COc1cc(C(=O)N2CC(C)OC[C@@H]2CC(=O)O)cc2nc(NC(CF)c3cccc(Cl)c3)oc12 (single isomer, unassigned) [Example 24]
4.6	0.16	1	CCO[C@@H]1CC(CO)N(C(=O)c2cc(OC)c3oc(NC(CF)c4cccc(Cl)c4)nc3c2)C1 (single isomer, unassigned) [Example 27]
56	2.3	–	CCO[C@@H]1CC(CO)N(C(=O)c2cc(OC)c3oc(NC(CF)c4cccc(Cl)c4)nc3c2)C1 (single isomer, unassigned) [Example 28]
46	5.3	–	CCO[C@@H]1CC(CCO)N(C(=O)c2cc(OC)c3oc(NC(CF)c4cccc(Cl)c4)nc3c2)C1 (single isomer, unassigned) [Example 30]
5	0.54	–	CCO[C@@H]1CC(CCO)N(C(=O)c2cc(OC)c3oc(NC(CF)c4cccc(Cl)c4)nc3c2)C1 (single isomer, unassigned) [Example 31]
8.4	0.38	0.8	COc1cc(C(=O)N2CC3(CC3)NC(=O)C2C)cc2nc(NC(CF)c3cccc(Cl)c3)oc12 (single isomer, unassigned) [Example 33, 7-[(2-{[1-(3-Chlorophenyl)-2-fluoroethyl]amino}-7-methoxy-1,3-benzoxazol-5-yl)carbonyl]-6-methyl-4,7-diazaspiro[2.5]octan-5-one]
170	20	–	COc1cc(C(=O)N2CC3(CC3)NC(=O)C2C)cc2nc(NC(CF)c3cccc(Cl)c3)oc12 (single isomer, unassigned) [Example 34, 7-[(2-{[1-(3-Chlorophenyl)-2-fluoroethyl]amino}-7-methoxy-1,3-benzoxazol-5-yl)carbonyl]-6-methyl-4,7-diazaspiro[2.5]octan-5-one]
2	0.19	–	CCO[C@@H]1CC(CO)N(C(=O)c2cc(OC)c3oc(NC(CF)c4cccc(Cl)c4)nc3c2)C1 (stereo partly drawn) [Example 26, (2-{[1-(3-Chlorophenyl)-2-fluoroethyl]amino}-7-methoxy-1,3-benzoxazol-5-yl)[(4R)-4-ethoxy-2-(hydroxymethyl)pyrrolidin-1-yl]methanone]
15	1.1	–	CCO[C@@H]1CC(CCO)N(C(=O)c2cc(OC)c3oc(NC(CF)c4cccc(Cl)c4)nc3c2)C1 (stereo partly drawn) [Example 29, (2-{[1-(3-Chlorophenyl)-2-fluoroethyl]amino}-7-methoxy-1,3-benzoxazol-5-yl)[(4R)-4-ethoxy-2-(2-hydroxyethyl)pyrrolidin-1-yl]methanone]
7.3	0.7	–	COc1cc(C(=O)N2CC3(CC3)NC(=O)C2C)cc2nc(NC(CF)c3cccc(Cl)c3)oc12 (stereo not drawn) [Example 32, 7-[(2-{[1-(3-Chlorophenyl)-2-fluoroethyl]amino}-7-methoxy-1,3-benzoxazol-5-yl)carbonyl]-6-methyl-4,7-diazaspiro[2.5]octan-5-one]
